From patent US20100292205A1, “Pyrimidone Compounds As GSK-3 Inhibitors” (PFIZER INC., priority 2006, published 2010)

target: T1, Recombinant human GSK3β (Homo sapiens, UniProt P49841); experiment: GSK-3β (Glycogen Synthase Kinase) cell free enzyme assay; type: biochemical; conditions: cell free enzyme assay; Examples 62-155
T1 construct: His-tag; made in house; host or cells: Sf9 insect cells / baculovirus
Method in brief: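 Recombinant human GSK3β, expressed in SF9/baculovirus cells and His-tag purified on Ni-NTA Superflow, was preincubated with test agent for 30 minutes at room temperature. Substrate mix was then added to start the reaction in 8 mM MOPS (pH 7.0), 10 mM magnesium acetate, 0.2 mM EDTA, 1 mM DTT, 2 uM cold ATP, 0.025 uCi/well [33P]ATP (120 uL) and 1.0 uM biotinylated peptide. Reactions ran at RT for 60 min.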

T1 sequence (P49841 whole entry): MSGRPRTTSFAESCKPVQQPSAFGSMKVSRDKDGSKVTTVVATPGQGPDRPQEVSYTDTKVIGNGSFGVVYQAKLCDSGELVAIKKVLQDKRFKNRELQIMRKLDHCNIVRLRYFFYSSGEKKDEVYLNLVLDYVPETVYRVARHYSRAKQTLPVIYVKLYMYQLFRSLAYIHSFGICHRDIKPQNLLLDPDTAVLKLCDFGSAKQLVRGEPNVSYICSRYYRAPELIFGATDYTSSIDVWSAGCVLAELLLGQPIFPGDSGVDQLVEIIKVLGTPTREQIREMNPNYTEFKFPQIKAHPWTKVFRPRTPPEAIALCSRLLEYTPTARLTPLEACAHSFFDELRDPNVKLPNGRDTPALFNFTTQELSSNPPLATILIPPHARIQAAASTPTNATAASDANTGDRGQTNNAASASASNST

Structure (SMILES) | IC50 [nM]
CN(c1nc(-c2ccncc2F)cc(=O)n1C)[C@H]1[C@@H]2CN(C(=O)c3ccc(Cl)nc3)C[C@@H]21 [Example 126, 2-[{(1R,5S,6s)-3-[(6-Chloropyridin-3-yl)carbonyl]-3-azabicyclo[3.1.0]hex-6-yl}(methyl)amino]-6-(3-fluoropyridin-4-yl)-3-methylpyrimidin-4(3H)-one] | 6.98
CCCCC(=O)N1C[C@@H]2[C@H](C1)[C@H]2N(C)c1nc(-c2ccncc2F)cc(=O)n1C [Example 128, 6-(3-Fluoropyridin-4-yl)-3-methyl-2-{methyl[(1R,5S,6s)-3-pentanoyl-3-azabicyclo[3.1.0]hex-6-yl]amino}pyrimidin-4(3H)-one] | 16.4
COC(=O)CCC(=O)N1C[C@@H]2[C@H](C1)[C@H]2N(C)c1nc(-c2ccncc2F)cc(=O)n1C [Example 129, Methyl 4-[(1R,5S,6s)-6-{[4-(3-fluoropyridin-4-yl)-1-methyl-6-oxo-1,6-dihydropyrimidin-2-yl](methyl)amino}-3-azabicyclo[3.1.0]hex-3-yl]-4-oxobutanoate] | 84.4
CN(c1nc(-c2ccncc2F)cc(=O)n1C)C1[C@H]2CN(C(=O)C34CC[C@@](C)(C(=O)O3)C4(C)C)C[C@@H]12 (stereo partly drawn) [Example 134, 6-(3-Fluoropyridin-4-yl)-3-methyl-2-{methyl[(1R,5S,6R)-3-{[(1S,4R)-4,7,7-trimethyl-3-oxo-2-oxabicyclo[2.2.1]hept-1-yl]carbonyl}-3-azabicyclo[3.1.0]hex-6-yl]amino}pyrimidin-4(3H)-one] | 65.7
CCC(=O)N1C[C@@H]2[C@H](C1)[C@H]2N(C)c1nc(-c2ccncc2F)cc(=O)n1C [Example 135, 6-(3-Fluoropyridin-4-yl)-3-methyl-2-{methyl[(1R,5S,6s)-3-propionyl-3-azabicyclo[3.1.0]hex-6-yl]amino}pyrimidin-4(3H)-one] | 5.46
CN(c1nc(-c2ccncc2F)cc(=O)n1C)[C@H]1[C@@H]2CN(C(=O)c3ccc(C#N)cc3)C[C@@H]21 [Example 136, 4-{[(1R,5S,6s)-6-{[4-(3-Fluoropyridin-4-yl)-1-methyl-6-oxo-1,6-dihydropyrimidin-2-yl](methyl)amino}-3-azabicyclo[3.1.0]hex-3-yl]carbonyl}benzonitrile] | 42.6
CCCC(=O)N1C[C@@H]2[C@H](C1)[C@H]2N(C)c1nc(-c2ccncc2F)cc(=O)n1C [Example 138, 2-{[(1R,5S,6s)-3-Butyryl-3-azabicyclo[3.1.0]hex-6-yl](methyl)amino}-6-(3-fluoropyridin-4-yl)-3-methylpyrimidin-4(3H)-one] | 13.8
CN(c1nc(-c2ccncc2F)cc(=O)n1C)[C@H]1[C@@H]2CN(C(=O)c3ccc(F)cc3)C[C@@H]21 [Example 139, 2-{[(1R,5S,6s)-3-(4-Fluorobenzoyl)-3-azabicyclo[3.1.0]hex-6-yl](methyl)amino}-6-(3-fluoropyridin-4-yl)-3-methylpyrimidin-4(3H)-one] | 5.67
CN(c1nc(-c2ccncc2F)cc(=O)n1C)[C@H]1[C@@H]2CN(C(=O)C3CC=CCC3)C[C@@H]21 (stereo partly drawn) [Example 140, 2-{[(1R,5S,6s)-3-(Cyclohex-3-en-1-ylcarbonyl)-3-azabicyclo[3.1.0]hex-6-yl](methyl)amino}-6-(3-fluoropyridin-4-yl)-3-methylpyrimidin-4(3H)-one] | 8.72
COC(=O)CCCC(=O)N1C[C@@H]2[C@H](C1)[C@H]2N(C)c1nc(-c2ccncc2F)cc(=O)n1C [Example 143, Methyl 5-[(1R,5S,6s)-6-{[4-(3-fluoropyridin-4-yl)-1-methyl-6-oxo-1,6-dihydropyrimidin-2-yl](methyl)amino}-3-azabicyclo[3.1.0]hex-3-yl]-5-oxopentanoate] | 57.4

The next compounds have a lower IC50 than those just listed; values first:

IC50 [nM] | Structure (SMILES)
4.41 | CCC(CC)C(=O)N1C[C@@H]2[C@H](C1)[C@H]2N(C)c1nc(-c2ccncc2F)cc(=O)n1C [Example 127, 2-{[(1R,5S,6s)-3-(2-Ethylbutanoyl)-3-azabicyclo[3.1.0]hex-6-yl](methyl)amino}-6-(3-fluoropyridin-4-yl)-3-methylpyrimidin-4(3H)-one]
4.09 | CN(c1nc(-c2ccncc2F)cc(=O)n1C)[C@H]1[C@@H]2CN(C(=O)c3cc(F)cc(F)c3)C[C@@H]21 [Example 144, 2-{[(1R,5S,6s)-3-(3,5-Difluorobenzoyl)-3-azabicyclo[3.1.0]hex-6-yl](methyl)amino}-6-(3-fluoropyridin-4-yl)-3-methylpyrimidin-4(3H)-one]
3.51 | Cc1ccc(C(=O)N2C[C@@H]3[C@H](C2)[C@H]3N(C)c2nc(-c3ccncc3F)cc(=O)n2C)cc1 [Example 142, 6-(3-Fluoropyridin-4-yl)-3-methyl-2-{methyl[(1R,5S,6s)-3-(4-methylbenzoyl)-3-azabicyclo[3.1.0]hex-6-yl]amino}pyrimidin-4(3H)-one]
3.29 | CN(c1nc(-c2ccncc2F)cc(=O)n1C)[C@H]1[C@@H]2CN(C(=O)c3cccc(F)c3F)C[C@@H]21 [Example 137, 2-{[(1R,5S,6s)-3-(2,3-Difluorobenzoyl)-3-azabicyclo[3.1.0]hex-6-yl](methyl)amino}-6-(3-fluoropyridin-4-yl)-3-methylpyrimidin-4(3H)-one]
2.91 | Cc1ccc(C(=O)N2C[C@@H]3[C@H](C2)[C@H]3N(C)c2nc(-c3ccncc3F)cc(=O)n2C)cc1F [Example 133, 2-{[(1R,5S,6s)-3-(3-Fluoro-4-methylbenzoyl)-3-azabicyclo[3.1.0]hex-6-yl](methyl)amino}-6-(3-fluoropyridin-4-yl)-3-methylpyrimidin-4(3H)-one]
2.11 | CN(c1nc(-c2ccncc2F)cc(=O)n1C)[C@H]1[C@@H]2CN(C(=O)c3cccc(C(F)(F)F)c3)C[C@@H]21 [Example 125, 6-(3-Fluoropyridin-4-yl)-3-methyl-2-(methyl{(1R,5S,6s)-3-[3-(trifluoromethyl)benzoyl]-3-azabicyclo[3.1.0]hex-6-yl}amino)pyrimidin-4(3H)-one]
1.69 | CN(c1nc(-c2ccncc2F)cc(=O)n1C)[C@H]1[C@@H]2CN(C(=O)c3cc(F)ccc3F)C[C@@H]21 [Example 130, 2-{[(1R,5S,6s)-3-(2,5-Difluorobenzoyl)-3-azabicyclo[3.1.0]hex-6-yl](methyl)amino}-6-(3-fluoropyridin-4-yl)-3-methylpyrimidin-4(3H)-one]
1.57 | CN(c1nc(-c2ccncc2F)cc(=O)n1C)[C@H]1[C@@H]2CN(C(=O)CC(C)(C)C)C[C@@H]21 [Example 131, 2-{[(1R,5S,6s)-3-(3,3-Dimethylbutanoyl)-3-azabicyclo[3.1.0]hex-6-yl](methyl)amino}-6-(3-fluoropyridin-4-yl)-3-methylpyrimidin-4(3H)-one]
1.05 | Cc1cccc(C(=O)N2C[C@@H]3[C@H](C2)[C@H]3N(C)c2nc(-c3ccncc3F)cc(=O)n2C)c1 [Example 132, 6-(3-Fluoropyridin-4-yl)-3-methyl-2-{methyl[(1R,5S,6s)-3-(3-methylbenzoyl)-3-azabicyclo[3.1.0]hex-6-yl]amino}pyrimidin-4(3H)-one]
1.04 | CN(c1nc(-c2ccncc2F)cc(=O)n1C)[C@H]1[C@@H]2CN(C(=O)c3cc(Cl)sc3Cl)C[C@@H]21 [Example 141, 2-[{(1R,5S,6s)-3-[(2,5-Dichloro-3-thienyl)carbonyl]-3-azabicyclo[3.1.0]hex-6-yl}(methyl)amino]-6-(3-fluoropyridin-4-yl)-3-methylpyrimidin-4(3H)-one]
